In publication PMC6352943, “Novel pyrazolo[3,4-d]pyrimidines: design, synthesis, anticancer activity, dual EGFR/ErbB2 receptor tyrosine kinases inhibitory activity, effects on cell cycle profile and caspase-3-mediated apoptosis” (Journal of Enzyme Inhibition and Medicinal Chemistry, 2019):

Key:
UO-31 = test: NCI 60 cell line single dose screen (SRB); format: cell-based; conditions: Homo sapiens; UO-31 (renal cancer), single dose 10^−5 M, 48 h; read-out: Growth inhibition percentage
Outline: (§1)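 Cells were plated and grown 24 h at 37 °C, 5% CO2 before compound addition from DMSO stock, then exposed 48 h. Adherent cells were fixed with cold TCA (final 10%) and suspension cells with 16% TCA. SRB-stained protein was read at 515 nm and percent growth was calculated against time-zero and untreated plates.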

SW-620 = test: NCI 60 cell line single dose screen (SRB); format: cell-based; conditions: Homo sapiens; SW-620 (colon cancer), single dose 10^−5 M, 48 h; read-out: Growth inhibition percentage
Outline: as §1

LOX IMVI = test: NCI 60 cell line single dose screen (SRB); format: cell-based; conditions: Homo sapiens; LOX IMVI (melanoma), single dose 10^−5 M, 48 h; read-out: Growth inhibition percentage
Outline: as §1

SK-OV-3 = test: NCI 60 cell line single dose screen (SRB); format: cell-based; conditions: Homo sapiens; SK-OV-3 (ovarian cancer), single dose 10^−5 M, 48 h; read-out: Growth inhibition percentage
Outline: as §1

HCC-2998 = test: NCI 60 cell line single dose screen (SRB); format: cell-based; conditions: Homo sapiens; HCC-2998 (colon cancer), single dose 10^−5 M, 48 h; read-out: Growth inhibition percentage
Outline: as §1

IGROV1 = test: NCI 60 cell line single dose screen (SRB); format: cell-based; conditions: Homo sapiens, IGROV-1; IGROV1 (ovarian cancer), single dose 10^−5 M, 48 h; read-out: Growth inhibition percentage
Outline: as §1

786-0 = test: NCI 60 cell line single dose screen (SRB); format: cell-based; conditions: Homo sapiens; 786-0 (renal cancer), single dose 10^−5 M, 48 h; read-out: Growth inhibition percentage
Outline: as §1

RPMI-8226 = test: NCI 60 cell line single dose screen (SRB); format: cell-based; conditions: Homo sapiens; RPMI-8226 (leukemia), single dose 10^−5 M, 48 h; read-out: Growth inhibition percentage
Outline: as §1

MCF7 = test: NCI 60 cell line single dose screen (SRB); format: cell-based; conditions: Homo sapiens; MCF7 (breast cancer), single dose 10^−5 M, 48 h; read-out: Growth inhibition percentage
Outline: as §1

T-47D = test: NCI 60 cell line single dose screen (SRB); format: cell-based; conditions: Homo sapiens, T47D; T-47D (breast cancer), single dose 10^−5 M, 48 h; read-out: Growth inhibition percentage
Outline: as §1

COLO 205 = test: NCI 60 cell line single dose screen (SRB); format: cell-based; conditions: Homo sapiens, COLO 205, 48 h; read-out: Growth inhibition percentage
Outline: as §1

SNB-19 = test: NCI 60 cell line single dose screen (SRB); format: cell-based; conditions: Homo sapiens; SNB-19 (CNS cancer), single dose 10^−5 M, 48 h; read-out: Growth inhibition percentage
Outline: as §1

PC-3 = test: NCI 60 cell line single dose screen (SRB); format: cell-based; conditions: Homo sapiens; PC-3 (prostate cancer), single dose 10^−5 M, 48 h; read-out: Growth inhibition percentage
Outline: as §1

NCI-H322M = test: NCI 60 cell line single dose screen (SRB); format: cell-based; conditions: Homo sapiens; NCI-H322M (non-small cell lung cancer), single dose 10^−5 M, 48 h; read-out: Growth inhibition percentage
Outline: as §1

MDA-MB-435 = test: NCI 60 cell line single dose screen (SRB); format: cell-based; conditions: Homo sapiens; MDA-MB-435 (melanoma), single dose 10^−5 M, 48 h; read-out: Growth inhibition percentage
Outline: as §1

HOP-62 = test: NCI 60 cell line single dose screen (SRB); format: cell-based; conditions: Homo sapiens; HOP-62 (non-small cell lung cancer), single dose 10^−5 M, 48 h; read-out: Growth inhibition percentage
Outline: as §1

| Compound | inhibition at 10 µM (UO-31) [%] | inhibition at 10 µM (SW-620) [%] | inhibition at 10 µM (LOX IMVI) [%] | inhibition at 10 µM (SK-OV-3) [%] | inhibition at 10 µM (HCC-2998) [%] | inhibition at 10 µM (IGROV1) [%] | inhibition at 10 µM (786-0) [%] | inhibition at 10 µM (RPMI-8226) [%] | inhibition at 10 µM (MCF7) [%] | inhibition at 10 µM (T-47D) [%] | inhibition at 10 µM (COLO 205) [%] | inhibition at 10 µM (SNB-19) [%] | inhibition at 10 µM (PC-3) [%] | inhibition at 10 µM (NCI-H322M) [%] | inhibition at 10 µM (MDA-MB-435) [%] | inhibition at 10 µM (HOP-62) [%] | melting point [°C] |
| --- | --- | --- | --- | --- | --- | --- | --- | --- | --- | --- | --- | --- | --- | --- | --- | --- | --- |
| Cc1nn(-c2ccc(F)cc2)c2nc[nH]c(=O)c12 [Compound 3, 1–(4-Fluorophenyl)-3-methyl-1H-pyrazolo[3,4-d]pyrimidin-4(5H)-one] | 11.7 | -12.3 | 2.19 | -2.82 | -2.16 | 5.29 | 1.16 | -10.2 | 2.7 | 0.23 | -14.9 | -3.69 | 1.46 | 5.19 | -7.05 | -6.53 | > 300 |
| Cc1nn(-c2ccc(F)cc2)c2ncnc(N)c12 [Compound 4, 1–(4-Fluorophenyl)-3-methyl-1H-pyrazolo[3,4-d]pyrimidin-4-amine] | 11.3 | -18.7 | 1.75 | -5.01 | -2.52 | 11.1 | 9.41 | -17.5 | 9.82 | 4.18 | -18.4 | -9.19 | 1.03 | 7.26 | -5.15 | -8.24 | > 300 |
| Cc1nn(-c2ccc(F)cc2)c2nc(N)nc(N)c12 [Compound 5, 1–(4-Fluorophenyl)-3-methyl-1H-pyrazolo[3,4-d]pyrimidine-4,6-diamine] | 14.2 | -16.8 | 2.19 | -6.26 | 3.79 | 6.71 | 2.79 | -3.69 | 0.73 | -2.65 | -13.5 | -7.94 | 3.59 | 8.14 | -7.73 | -8.35 | > 300 |
| Cc1nn(-c2ccc(F)cc2)c2ncnc(Cl)c12 [Compound 6, 4-Chloro-1–(4-fluorophenyl)-3-methyl-1H-pyrazolo[3,4-d]pyrimidine] | 11.8 | -2.88 | 6.64 | 13.7 | -5.66 | 24.4 | -0.09 | 2.21 | 11.6 | 0.28 | -14.9 | 7.79 | 14.8 | 5.32 | -8.83 | 15.4 | 178 to 180 |
| Cc1ccc(Nc2ncnc3c2c(C)nn3-c2ccc(F)cc2)cc1 [Compound 7c, 1–(4-Fluorophenyl)-3-methyl-N-(p-tolyl)-1H-pyrazolo[3,4-d]-pyrimidin-4-amine] | 8.66 | -8.11 | -0.99 | -16.7 | 1.34 | 1.54 | 0.56 | -4.47 | 6.19 | 14.6 | -13.3 | 7.21 | 7.23 | 10 | -6.94 | -14.5 | – |
| Cc1nn(-c2ccc(F)cc2)c2ncnc(N3CCOCC3)c12 [Compound 8a, 1–(4-Fluorophenyl)-3-methyl-4-morpholino-1H-pyrazolo[3,4-d]pyrimidine] | 5.57 | -4.76 | -2.33 | -7.07 | 2.41 | -3.29 | 10.6 | 2 | 9.07 | -22.2 | -7.19 | 5.14 | 5.06 | 5.51 | -2.24 | -13.6 | – |
| Cc1nn(-c2ccc(F)cc2)c2ncnc(N3CCN(c4ccc(Cl)cc4)CC3)c12 [Compound 8c, 4–(4-(4-Chlorophenyl)piperazin-1-yl)-1–(4-fluorophenyl)-3-methyl-1H-pyrazolo[3,4-d]pyrimidine] | 34.9 | -3.16 | 4.93 | 12.6 | 3.74 | 25.6 | -2.04 | -8.37 | 3.1 | 10.3 | -1.97 | -4.77 | 11.3 | 3.9 | -14.5 | 4.05 | 167 to 169 |
| COc1ccc(N2CCN(c3ncnc4c3c(C)nn4-c3ccc(F)cc3)CC2)cc1 [Compound 8d, 1–(4-Fluorophenyl)-4–(4-(4-methoxyphenyl)piperazin-1-yl)-3-methyl-1H-pyrazolo[3,4-d]pyrimidine] | 21.3 | -0.63 | 0.28 | 3.69 | 3.59 | 9.45 | -4.57 | 6.45 | 1.6 | 3.85 | -7.56 | 2.02 | 12.5 | 1.5 | -6.1 | 1.51 | – |
| Cc1nn(-c2ccc(F)cc2)c2ncnc(NN)c12 [Compound 9, 1–(4-Fluorophenyl)-4-hydrazinyl-3-methyl-1H-pyrazolo[3,4-d]-pyrimidine] | 28.7 | -8.79 | 13.3 | 7.98 | 5.1 | 23.5 | -3.72 | -6.21 | 11.5 | 32 | -11.7 | 11.3 | 13.8 | 23.9 | -9.22 | 4.27 | 208 to 210 |
| COc1cc(C=NNc2ncnc3c2c(C)nn3-c2ccc(F)cc2)ccc1O [Compound 10b, 1–(4-Fluorophenyl)-4–(2-(4-hydroxy-3-methoxybenzylidene)-hydrazinyl)-3-methyl-1H-pyrazolo[3,4-d]pyrimidine] | 35.6 | -30.9 | 19 | 0.81 | 0.27 | 20.6 | 11.3 | 7.52 | 14.7 | 20.1 | -4.39 | 6.67 | 27 | 14.4 | 4.56 | -6.39 | 221 to 223 |
| COc1cc(C=NNc2ncnc3c2c(C)nn3-c2ccc(F)cc2)cc(OC)c1OC [Compound 10c, 1–(4-Fluorophenyl)-3-methyl-4–(2-(3,4,5-trimethoxybenzylidene)-hydrazinyl)-1H-pyrazolo[3,4-d]pyrimidine] | 31.1 | -11.7 | 9.33 | 7.06 | 2.74 | 26.6 | 1.85 | 1.29 | 1.96 | 16.8 | -6.78 | -4.87 | 16.5 | 13.5 | -2.02 | 0.38 | 222 to 224 |
